We go through 2 molecules from patent US10450549B2, “Aryloxyphenoxypropionate tolerance in turfrgass species and use of AAD1 as a selectable marker” (Dow AgroSciences, LLC, priority 2004, dated 2019).

The subject of experiment [1] is homozygous T4 lines of Arabidopsis. As to the kind of experiment: 2,4-D injury and AAD1 (v3) expression in homozygous T4 Arabidopsis lines. In kind it is in vivo, Arabidopsis thaliana. As to conditions: 800 g ae/ha and above; 14 DAT. As for the experimental part:
An experiment was designed to examine if the level of AAD1 (v3) expression in Arabidopsis varies at different growth stages. A high-tolerance, homozygous, AAD1 (v3) T4 line (id=PAAD1.01.345.163) was grown in greenhouse. […] Two leaves, the 3rd leaf from the top and the 5th leaf from the bottom, were harvested from 5 plants, both treated and untreated, and analyzed by ELISA and Western Blotting (as described in Example 11) experiments at 4, 10, 14, 20 and 25 DAT. […] The protein levels accumulated in older plants with some significant protein degradation at the later time points.
These plants also expressed high level of AAD1 (v3), from 0.1 to 0.25% of (FIG. 9B). On the contrary, the low tolerance line expressed less than 0.1% of AAD1 (v3) in TSP and suffered observable injury.

The subject of experiment [2] is AAD2 (v1)-transformed T1 Arabidopsis. As to the kind of experiment: T1 Arabidopsis response to postemergence herbicide, % visual injury 2 WAT: native AAD2 (v1) transformants. In kind it is in vivo, Arabidopsis thaliana. Conditions: Native AAD2 gene. The text has this: Table 16. […] Response is presented in terms of % visual injury 2 WAT. […] Since each T1 is an independent transformation event, one can expect significant variation of individual T1 responses within a given rate. An arithmetic mean and standard deviation is presented for each treatment. The range in individual response is also indicated in the last column for each rate and transformation. PAT/Cry1F-transformed Arabidopsis served as an auxin-sensitive transformed control. Wildtype Arabidopsis is untransformed.
Freshly harvested T1 seed transformed with a native [AAD1 (v2)], plant optimized [AAD1 (v3)], or native AAD2 (v1) gene was allowed to dry for 7 days at room temperature. T1 seed was sown in 26.5×51-cm germination trays (T.O. Plastics Inc., Clearwater, Minn.), each receiving a 200 mg aliquots of stratified T1 seed (˜10,000 seed) that had previously been suspended in 40 ml of 0.1% agarose solution and stored at 4° C. for 2 days to complete dormancy requirements and ensure synchronous seed germination.
Sunshine Mix LP5 (Sun Gro Horticulture Inc., Bellevue, Wash.) was covered with fine vermiculite and subirrigated with Hoagland's solution until wet and then allowed to gravity drain. Each 40 ml aliquot of stratified seed was sown evenly onto the vermiculite with a pipette and covered with humidity domes (KORD Products, Bramalea, Ontario, Canada) for 4-5 days. Domes were removed 1 day prior to initial transformant selection using glufosinate postemergence spray (selecting for the co-transformed PAT gene).
Five to six days after planting (DAP) and again 10 DAP, T1 plants (cotyledon and 2-4-1f stage, respectively) were sprayed with a 0.2% solution of Liberty herbicide (200 g ai/L glufosinate, Bayer Crop Sciences, Kansas City, Mo.) at a spray volume of 10 ml/tray (703 L/ha) using a DeVilbiss compressed air spray tip to deliver an effective rate of 280 g ai/ha glufosinate per application. Survivors (plants actively growing) were identified 5-7 days after the final spraying and transplanted individually into 3-inch pots prepared with potting media (Metro Mix 360). Transplanted plants were covered with humidity domes for 3-4 days and placed in a 22° C. growth chamber as before. Domes were subsequently removed and plants moved to the greenhouse (22+5° C., 50+30% RH, 14 hours light:10 dark, minimum 500 μE/m^2s^1 natural+supplemental light) at least 1 day prior to testing for the ability of AAD1 (v3), AAD1 (v2), or AAD2 (v1) to provide phenoxy auxin herbicide resistance.
Random individual T1 plants selected for glufosinate resistance above were confirmed for expression of the PAT protein using a PAT ELISA kit (Part no. 7000045, Strategic Diagnostics, Inc., Newark, Del.) to non-destructively confirm fidelity of selection process (manufacturer's protocol).
Herbicide applications were applied by track sprayer in a 187 L/ha spray volume.

Experiment [3] deals with Non-transformed Hi-II callused suspension tissue. As to the kind of experiment: Dose response of non-transformed maize callus tissue. The format is cell-based. Conditions: haloxyfop 400 nM.
The test system of experiment [4] is AAD1-transformed T0 ‘Shamrock’ Kentucky bluegrass events. As to the kind of experiment: Haloxyfop-R-methyl postemergence on AAD1 (pDAB3878) T0 Shamrock Kentucky bluegrass, visual % injury. As to conditions: for injury of event KGB51: 560 g ae/ha. In kind it is in vivo. As for the experimental part: ‘Shamrock’ Kentucky bluegrass T0 pDAB3878 events were maintained vegetatively through division of the crowns and replanting the clonal pieces into fresh growth medium. Clonally propagated plants were maintained by periodic “mowing” of vegetative tissues.
A growth medium was prepared by mixing Promix® and sand in a 2 to 1 ratio. The medium was contained in plastic pots with a surface area of 84.6 square centimeters (cm^2). When required to maintain plant health, a fungicide, insecticide, and/or other chemical or physical treatment was applied to stock plants. The plants were maintained in a greenhouse with an approximate 14 hour photoperiod which was maintained at 24-27° C. during the day and 22-25° C. during the night. Nutrients (Peters Excel® 15-5-15 5-Ca 2-Mg and iron chelate) were applied in the irrigation solution as needed and water was added on a regular basis. Supplemental lighting was provided with overhead metal halide 1000-Watt lamps when PAR dropped below 500.
The selected T0 plants were sprayed with haloxyfop-R-methyl (Gallant Super®, DOW AGROSCIENCES, INC.) at rates ranging from 140 to 560 g ae/ha. […] This rate would also control susceptible monocot weed species. Measured amounts were placed individually in 25 mL glass vials and dissolved in a 12 mL volume of 1.0% (v/v) Agri-Dex® Crop Oil Concentrate (COC).
Spray solutions were applied to the plant material with an overhead Mandel™ track sprayer equipped with a 8002E nozzles calibrated to deliver 187 L/ha over an application area of 0.503 square meters (m^2) at a spray height of 18 inches (46 cm) above average plant canopy height. Control plants were sprayed in the same manner with the COC blank.
The treated plants and control plants were placed in a greenhouse and watered by sub-irrigation to prevent wash-off of the test compounds. At various times after application, the condition of the test plants as compared with that of the untreated plants was determined visually and scored on a scale of 0 to 100 percent, where 0 corresponds to no injury or growth inhibition, and 100 corresponds to complete kill. Regenerated, non-transformed (NT) ‘Shamrock’ Kentucky bluegrass plants and/or seed-derived clonally propagated plants served as haloxyfop sensitive controls.

With `O=C(O)COc1ccc(Cl)cc1Cl` [2,4-D, 2,4-dichlorophenoxyacetic acid], the “response of control plants” value in experiment [1] is “died”. In experiment [2] (50 g ae/ha), the “% Injury Ave” value amounted to 68.2%, the “individuals with 20-40% injury” value was 2, the “individuals with <20% injury” value is on record as 1 and the “individuals with >40% injury” value is listed as 11. For the same molecule, in experiment [2] (200 g ae/ha), the “individuals with 20-40% injury” value was 3, the “individuals with <20% injury” value is 0 and the “individuals with >40% injury” value is on record as 11. Further, in experiment [2] (800 g ae/ha), the “% Injury Ave” value worked out at 99.8%, the “individuals with 20-40% injury” value was determined as 0, the “individuals with <20% injury” value is reported as 0 and the “individuals with >40% injury” value is given as 14.

Take `CC(Oc1ccc(Oc2ncc(C(F)(F)F)cc2Cl)cc1)C(=O)O` (centres unmarked) [haloxyfop]: the “non-transgenic corn callus tissue growth” value in experiment [3] is listed as “inhibited”. The “mean injury, pDAB3878 Shamrock Kentucky bluegrass events” value in experiment [4] (140 and 560 g ae/ha, 11, 14 and 20 DAA) was “less than 15%”. For the same molecule, the results for the “injury of event KGB51” value in experiment [4] (11 DAA), in experiment [4] (14 DAA) and in experiment [4] (20 DAA) were “about 20%”, about 30% and about 30%, respectively.
